Literature values in patent publication US10130578B2, “Topical delivery of skin compositions having low pH” (Johnson & Johnson Consumer Inc., priority 2015, dated 2018).

pKa: 2.9
Substance: Hyaluronic acid
